One data set deals with CFTR (Homo sapiens, UniProt P13569). The data set can be described thus: Short-circuit current in non-permeabilized T84 and human bronchial epithelial cells. In kind it is cell-based. Also on record: endogenous in cells; host or cells: T84 human intestinal epithelial cells; primary human bronchial epithelial cells. The note with it: forskolin and IBMX, read-out: IC50 for CFTR inhibition.

The subject of the next data set is cellular cAMP production. The data set can be described thus: Cellular cAMP assayed in CHO-K1 cells, basal and forskolin-stimulated. In kind it is cell-based. The note with it: 10 μM; 20 μM forskolin. Here is the method:
FIG. 3A: Apical membrane current measured in CFTR-expressing FRT cells in the presence of a transepithelial chloride gradient and with amphotericin B permeabilization of the basolateral membrane. CFTR was activated by CPT-cAMP (chlorophenylthio-cAMP) (100 μM), with increasing concentrations of PPQ-102 added as shown. Left: Original recording. Right: Dose-response (S.E. n=4). FIG. 3B: Measurements as in FIG. 3A, but with apigenin (100 μM) or IBMX (100 μM) as agonists. The data are representative of 3 sets of experiments. FIG. 3C: Short-circuit current measured in T84 (left) and human bronchial airway epithelial cells (right). CFTR was maximally activated by 10 μM forskolin and 100 μM IBMX (‘forsk’). Current in the absence of inhibitor is indicated as ‘control.’ FIG. 3D: Calcium-activated chloride channels were activated by UTP (100 μM) in cystic fibrosis (CFTR-deficient) human bronchial epithelial cells, with PPQ-102 added as indicated. ENaC (epithelial sodium channel) was inhibited by amiloride (10 μM). FIG. 3E: Cellular cAMP assayed in CHO—K1 cells under basal conditions and after addition of 20 μM forskolin (S.E. n=4, differences with PPQ-102, not significant).
On the technique in general: cAMP levels reflect the balance of adenylyl cyclase and phosphodiesterase activity.

In a further data set the target is T1, human wildtype CFTR (Homo sapiens, UniProt P13569).
T1 construct: expressed in transfected cells; host or cells: Fischer rat thyroid (FRT) cells
Description: Short-circuit (apical membrane) chloride current in CFTR-expressing FRT cells, basolateral membrane permeabilized. In kind it is cell-based. How it is done: C. Short-Circuit Current Measurements—Snapwell inserts containing CFTR-expressing FRT cells (stably expressing human wildtype CFTR), T84 cells, or human bronchial epithelial cells were mounted in Ussing chambers. For FRT cells the hemichambers were filled with 5 mL of 75 mM NaCl and 75 mM Na gluconate (apical), and 150 mM NaCl (basolateral) (pH 7.3), and the basolateral membrane was permeabilized with 250 μg/mL amphotericin B. For bronchial epithelial cells and T84 cells, both hemichambers contained a Krebs-bicarbonate solution. Hemichambers were continuously bubbled with air (FRT cells) or 5% CO2 in air (bronchial and T84 cells) and maintained at 37° C. Short-circuit current was recorded continuously using a DVC-1000 voltage clamp (World Precision Instruments, Sarasota, Fla.) using Ag/AgCl electrodes and 3 M KCl agar bridges.
Short circuit current analysis was performed as described in Example 2. […] Measurements were taken in the presence of a transepithelial chloride gradient and following basolateral membrane permeabilization with amphotericin B so that measured current is a direct, quantitative measure of CFTR chloride conductance.

Data set [1] has as its system renal cysts in E13.5 embryonic kidneys. The data set can be described thus: Embryonic kidney organ culture model of PKD (8-Br-cAMP-induced cysts). In kind it is cell-based, mouse. How it is done: E. Embryonic Organ Culture Model of PKD—Mouse embryos were obtained at embryonic day 13.5 (E13.5). Metanephroi were dissected and placed on transparent Falcon […] diameter porous cell culture inserts as described (see, e.g., Sonawane et al., Chem. Biol. 15:718-728 (2008)). To the culture inserts was added DMEM/Ham's F-12 nutrient medium supplemented with 2 mM L-glutamine, 10 mM HEPES, 5 μg/mL insulin, 5 μg/mL transferrin, 2.8 nM selenium, 25 ng/ml prostaglandin E, 32 pg/ml T3, 250 U/ml penicillin and 250 μg/ml streptomycin. Kidneys were maintained in a 37° C. humidified CO2 incubator for up to 8 days. Culture medium containing 100 μM 8-Br-cAMP, with or without CFTR inhibitor, was replaced (in the lower chamber) every 12 h. In some studies CFTR inhibitor was added at 3 days after 8-Br-cAMP to test its efficacy in reversing pre-formed cysts. Kidneys were photographed using a Nikon inverted microscope (Nikon TE 2000-S) equipped with 2× objective lens, 520 nm bandpass filter, and high-resolution CCD camera. Percentage cyst area was calculated as total cyst area divided by total kidney area.
Kidneys were removed from day 13.5 embryonic mice and maintained in organ culture where they continue to grow. […] Multiple cysts did form and progressively enlarged when the culture medium was supplemented with the CFTR agonist 8-Br-cAMP (see FIG. 5A, left). […] In agreement with the transmission light micrographs of intact kidneys, PPQ-102 reduced cyst size.

Each structure is given as a SMILES string.

From patent US8609661B2, “Pyrimido-pyrrolo-quinoxalinedione inhibitors of cystic fibrosis transmembrane conductance regulator protein and uses therefor” (The Regents of the University of California, priority 2009, dated 2013) come the findings set out here.

T1 sequence (P13569 whole entry): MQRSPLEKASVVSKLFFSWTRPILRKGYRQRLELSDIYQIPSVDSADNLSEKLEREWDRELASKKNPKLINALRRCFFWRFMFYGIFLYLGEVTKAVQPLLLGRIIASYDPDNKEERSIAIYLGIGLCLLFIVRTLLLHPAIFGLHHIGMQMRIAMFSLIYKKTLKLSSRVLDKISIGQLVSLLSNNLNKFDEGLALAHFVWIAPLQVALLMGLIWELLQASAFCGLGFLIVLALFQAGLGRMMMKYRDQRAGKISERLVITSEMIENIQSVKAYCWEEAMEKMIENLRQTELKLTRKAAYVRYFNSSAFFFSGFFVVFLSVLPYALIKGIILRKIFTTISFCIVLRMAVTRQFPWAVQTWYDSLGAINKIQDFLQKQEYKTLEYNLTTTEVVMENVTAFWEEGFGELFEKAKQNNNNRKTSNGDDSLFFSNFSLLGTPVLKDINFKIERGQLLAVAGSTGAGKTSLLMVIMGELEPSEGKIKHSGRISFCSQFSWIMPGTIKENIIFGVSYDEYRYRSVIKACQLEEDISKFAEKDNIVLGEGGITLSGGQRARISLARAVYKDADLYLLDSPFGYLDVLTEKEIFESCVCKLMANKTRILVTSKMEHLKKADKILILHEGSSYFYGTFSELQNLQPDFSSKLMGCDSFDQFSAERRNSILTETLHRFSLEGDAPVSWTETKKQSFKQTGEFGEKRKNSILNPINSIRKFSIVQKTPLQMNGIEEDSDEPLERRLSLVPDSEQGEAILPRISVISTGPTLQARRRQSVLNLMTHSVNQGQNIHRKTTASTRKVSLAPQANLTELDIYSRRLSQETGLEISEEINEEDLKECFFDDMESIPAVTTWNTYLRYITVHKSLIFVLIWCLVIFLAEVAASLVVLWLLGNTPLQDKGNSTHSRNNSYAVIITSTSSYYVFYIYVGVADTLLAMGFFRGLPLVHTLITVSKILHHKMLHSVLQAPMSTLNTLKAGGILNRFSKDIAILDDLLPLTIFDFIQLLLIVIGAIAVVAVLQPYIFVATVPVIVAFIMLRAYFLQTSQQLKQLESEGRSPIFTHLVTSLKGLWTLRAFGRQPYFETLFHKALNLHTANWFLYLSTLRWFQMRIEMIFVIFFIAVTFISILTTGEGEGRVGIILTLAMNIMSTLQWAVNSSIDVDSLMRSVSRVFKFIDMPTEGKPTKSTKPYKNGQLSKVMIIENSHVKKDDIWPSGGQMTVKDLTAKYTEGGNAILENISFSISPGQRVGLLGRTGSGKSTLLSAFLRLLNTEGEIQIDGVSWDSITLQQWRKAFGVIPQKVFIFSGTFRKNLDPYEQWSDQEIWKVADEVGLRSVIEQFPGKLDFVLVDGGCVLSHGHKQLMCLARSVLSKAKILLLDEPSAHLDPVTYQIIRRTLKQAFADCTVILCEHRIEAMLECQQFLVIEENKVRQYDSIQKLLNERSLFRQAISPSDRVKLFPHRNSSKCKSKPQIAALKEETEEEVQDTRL
Sequence of CFTR (P13569 whole entry): as above

In the case of `Cc1ccc(C2Nc3ccccc3-n3c(-c4ccccc4)c4c(=O)n(C)c(=O)n(C)c4c32)o1` (racemic) [PPQ-102, 7,9-Dimethyl-11-phenyl-6-(5-methylfuran-2-yl)-5,6-dihydro-pyrimido[4′,5′-3,4]pyrrolo[1,2-a]quinoxaline-8,10-(7H,9H)-dione], the IC50 – broadly, the concentration that gives 50% inhibition – at CFTR is below 1000 nM; on human wildtype CFTR (CFTR stimulated by CPT-cAMP, transepithelial chloride gradient, amphotericin B, read-out: IC50 for inhibition of CFTR chloride conductance), around 90 nM. The “effect on basal or forskolin-stimulated cAMP production” value in the data set with cellular cAMP production was “no significant effect”. Moreover, the reversibility of inhibition entry on human wildtype CFTR (30 min incubation with 2 μM, then 10 min washout) is listed as “complete restoration of CFTR chloride current”. For the same compound, the “inhibition of CFTR at higher concentrations” value against human wildtype CFTR (CPT-cAMP stimulation, higher concentrations) is recorded as “approximately 100%”. The “potency with apigenin or IBMX as agonist compared to CPT-cAMP” value at human wildtype CFTR (apigenin (100 μM) or IBMX (100 μM) as agonists) is “mildly reduced”. Further, the “reversibility of cyst inhibition” value in data set [1] (2.5 μM removed after 3 days, 8-Br-cAMP continued) was “reversible”. The “effect on pre-formed cysts” value in data set [1] (5 μM added at day 3 of 8-Br-cAMP, over 1 and 2 days) is “reduction in cyst size”. Further, in data set [1] (2.5 and 5 μM, 4 days in culture, 100 μM 8-Br-cAMP), the “cysts at 2.5 and 5 μM” value is “near complete absence of cysts”. Further, the “effect on kidney growth” value in data set [1] (in culture medium) is recorded as “did not affect kidney growth”.
